Results from patent US8119660B2, “Small-molecule inhibitors of the androgen receptor” (The Regents of the University of California, priority 2007, dated 2012).
Counter-ions that a name gives are not always drawn.

How the values were obtained:
HEK293 cells = experiment: Cell proliferation (DNA content, DAPI), HEK293 control; assay type: cell-based; details: HEK293, seven days; PP 100 nM, HH 100 nM, BiC 1 μM
Description: LN-AR cells were created by retroviral infection of a high-expressing AR vector into LNCaP cells, and proliferate independent of androgen in cell culture, unlike their parental line (Chen, C. D., et al., Molecular determinants of resistance to antiandrogen therapy. Nat Med, 2004. 10(1): p. 33-9). HEK293 cells were used as a control. Cells were transferred to charcoal-stripped media two days before they were split and plated in quadruplicate at a density of approximately 20,000 cells/well in 48-well plates. […] Media were changed every day, using a single preparation to ensure consistent compound concentrations. Proliferation was determined by measuring the DNA content of the cells in each well. Each day, the cells in four wells were fixed in 100% cold methanol, followed by staining for 5 min at RT with 0.2 ng/mL 4′,6-diamidino-2-phenylindole (DAPI) in PBS. The cells were washed once in PBS, then read on a fluorescence plate reader using 365/439 excitation/emission wavelengths. LAPC4 and LNCaP cells proliferated to a much greater degree in the presence of DHT, while LN-AR cells proliferated in the presence and absence of DHT.

[1] = system: endogenous AR-regulated gene expression, LAPC4 cells; experiment: qRT-PCR of androgen-responsive genes in LAPC4 cells; assay type: cell-based, human; details: No DHT = 1, 3 nM DHT alone or with 1 uM BIC, 100 nM PP or 100 nM HH
Method: LAPC4 and LNCaP cells were grown in the presence or absence of 3 nM DHT in charcoal-stripped media, with or without the inhibitors. RNA was harvested using an RNAeasy kit (Qiagen) and reverse transcribed (MMLV-RT, Invitrogen). Real-time PCR was carried out on a 7300 Real Time PCR System (Applied Biosystems) using SYBR green as the detecting dye and Rox as the reference dye. The androgen responsive genes kalikrein 3, or PSA (KLK3) [Cleutjens, K. B., et al., Two androgen response regions cooperate in steroid hormone regulated activity of the prostate-specific antigen promoter. J Biol Chem, 1996. 271(11): p. 6379-88; Nelson, P. S., et al., The program of androgen-responsive genes in neoplastic prostate epithelium. Proc Natl Acad Sci USA, 2002. 99(18): p. 11890-5), metalloproteinase 16 (MMP16) (Nelson, P. S., et al., The program of androgen-responsive genes in neoplastic prostate epithelium. Proc Natl Acad Sci USA, 2002. 99(18): p. 11890-5), transmembrane protease serine 2 (TMPRSS2) (Nelson, P. S., et al., The program of androgen-responsive genes in neoplastic prostate epithelium. Proc Natl Acad Sci USA, 2002. 99(18): p. 11890-5; […] Vaarala, M. H., et al., Expression of transmembrane serine protease TMPRSS2 in mouse and human tissues. J Pathol, 2001. 193(1): p. 134-40), FK506-binding immunophilin 51 (FKBP51) (Nelson, P. S., et al., The program of androgen-responsive genes in neoplastic prostate epithelium. Proc Natl Acad Sci USA, 2002. 99(18): p. 11890-5; Amler, L. C., et al., Dysregulated expression of androgen-responsive and nonresponsive genes in the androgen-independent prostate cancer xenograft model CWR22-R1. Cancer Res, 2000. 60(21): p. 6134-41; Velasco, A. M., et al., Identification and validation of novel androgen-regulated genes in prostate cancer. Endocrinology, 2004. 145(8): p. 3913-24; Magee, J. A., et al., Direct, androgen receptor-mediated regulation of the FKBP5 gene via a distal enhancer element. Endocrinology, 2006. 147(1): p. 590-8), G-protein coupled receptor RDC1 homolog, or chemokine orphan receptor 1 (RDC-1) (Nelson, P. S., et al., The program of androgen-responsive genes in neoplastic prostate epithelium. Proc Natl Acad Sci USA, 2002. 99(18): p. 11890-5), NK homeobox family member 3 (Nk×3.1) (Nelson, P. S., et al., The program of androgen-responsive genes in neoplastic prostate epithelium. Proc Natl Acad Sci USA, 2002. 99(18): p. 11890-5; Bieberich, C. J., et al., Prostate-specific and androgen-dependent expression of a novel homeobox gene. J Biol Chem, 1996. 271(50): p. 31779-82; […]) were all normalized to the transcription of the housekeeping ribosomal gene (RPL19). All samples were done in triplicate and separately normalized.

How did the “Non-specific growth inhibition of control cells” value (HEK293 cells) turn out when Cc1nccc2c1[nH]c1cc(O)ccc12 [HH, harmol hydrochloride] was run?
The value was “Neither compound exhibited non-specific growth inhibition”.

And the “FKBP51 transcription (normalized to RPL19)” value [1]?
Its value is 11.96.

And the “KLK3 transcription (normalized to RPL19)” value [1]?
Its value is 1.64.

What about the “MMP16 transcription (normalized to RPL19), androgen-repressed gene” value [1] of the same molecule?
Its value is 4.74.

And the “Nkx3.1 transcription (normalized to RPL19)” value [1]?
The value was 1.55.

What about the “RDC1 transcription (normalized to RPL19), androgen-repressed gene” value [1] of the same molecule?
Its value is 2.88.

And the “TMPRSS2 transcription (normalized to RPL19)” value [1]?
Its value is 1.86.
